What all share (assay type): cell-based
Assay [1] deals with Escherichia coli. Briefly: Primary bacteria screening. Conditions: test compound concentration 500 μMol in tryptose broth agar, 27° C. Further details: key: score: 3 = complete inhibition of growth, 2 = growth partially controlled. On the procedure:
(§1) The stock solutions with the test compounds were pipetted into multiwell plates and mixed with warm tryptose broth agar (2.6%) in order to reach a test compound concentration of 500 μMol. The medium was allowed to cool and subsequently inoculated with the bacteria. Wells were placed in an incubator at 27° C. and a relative humidity of 70%. After sufficient growth of the untreated cultures, the test was evaluated.
(§2) 3: complete inhibition of bacterial growth
(§3) 2: bacterial growth partially controlled

The subject of assay [2] is Pseudomonas aeruginosa. Briefly: Primary bacteria screening. Further details: key: score: 3 = complete inhibition of growth, 2 = growth partially controlled. The settings on record: test compound concentration 500 μMol in tryptose broth agar, 27° C. On the procedure:
as §1, §2, §3

The subject of assay [3] is Debaryomyces hansenii. The experiment in a line: Screening against yeasts. The settings on record: test compound concentration 500 μM. The protocol:
as §1, §2, §3
(§4) A number of compounds of formula (I) were also tested in a screening against certain The test conditions are the same as described in biological example C.1. The concentration of the test compound was also 500 μmol, and the scoring system used was also the same.
Debaryomyces hansenii (19)

For assay [4], the system named is Rhodotorula rubra. Briefly: Screening against yeasts. Conditions: test compound concentration 500 μmol. On the procedure:
as §1, §2, §3, §4

Assay [5] relates to Sporobolomyces roseus. The experiment in a line: Screening against yeasts. The settings on record: test compound concentration 500 μmol. The protocol:
as §1, §2, §3, §4
Sporobolomyces roseus (21)

In assay [6] the test system is Providencia rettgeri. Briefly: Poison plate assay, combinations with BAC. The settings on record: BAC alone 80 μmol. The protocol:
Biocidal activity against bacterial/yeast growth was determined with the poison plate assay. To obtain the required concentrations of the test compound, calculated amounts of stock solutions (DMSO) were pipetted into multi-well plates. Tryptose agar (except for Rhodotorula: PDA) was added aseptically and uniform distribution was obtained by shaking. Each plate was inoculated with a bacterial/yeast suspension. After incubation at 27° C. and 70% relative humidity, for a period long enough to allow complete growth of controls, percentage activity as compared to the control was scored.
Possible synergy was investigated using Limpel's formula (Richter, D. L., Pestic. Sci. 1987, 19: 309-315): [formula]
where EC is the expected additive response, or calculated activity, X is the observed percentage control when compound A is applied alone and Y is the observed percentage control when compound B is applied alone. Synergy was considered to occur when the observed effect, or measured activity, of a combination of both compounds was greater than the corresponding EC value.
The table C.7 to C.8 below enumerate the measured and calculated activities of BAC and compounds 20, 42 and 40 when tested as a single test compound or as a combination against Providencia rettgeri. BAC (benzalconium chloride) is a well-bacteride and was tested at a concentration of 40 and 80 μmol. Compounds 20, 40 and 42 were tested at a concentration of 10, 20, 40, 80 and 160 μmol. When a synergistic effect was observed, the “measured” and “calculated” activity are indicated with a bold typeface.

Counter-ions that a name gives are not always drawn.

With `Cl.Cl.Fc1ccc(-c2ccc(C(c3ccccc3)C3CCN(C4CCNCC4)CC3)cc2)cc1.O` (racemic) [Co. No. 7, (±)-4-[[4′-fluoro(1,1′-biphenyl)-4-yl]phenylmethyl](1,4′-bipiperidine)dihydro-chloride.monohydrate], the “E. coli (growth inhibition score)” value in assay [1] was 3. Further, the “P. aeruginosa (growth inhibition score)” value in assay [2] worked out at 3. In addition, the “Test yeast (19) Debaryomyces hansenii (score)” value in assay [3] worked out at 3. Also, the “Test yeast (20) Rhodotorula rubra (score)” value in assay [4] is 2. Also, the “Test yeast (21) Sporobolomyces roseus (score)” value in assay [5] is 3.

Take `CN(C)CCC1CCN(CCC(O)(c2ccc(-c3ccccc3)cc2)c2ccc(Cl)cc2Cl)CC1.Cl.Cl` (racemic) [Co. No. 34, (±)-α-[(1,1 ′-biphenyl)-4-yl]-a-(2,4-dichlorophenyl)-4-[2-(dimethylamino)ethyl]-1-piperidine-propanol dihydrochloride]: the “E. coli (growth inhibition score)” value in assay [1] is reported as 1. The “P. aeruginosa (growth inhibition score)” value in assay [2] came to 1.

Consider `CN(C)CCCN(C)CCC(c1ccccc1)c1ccc(-c2ccccc2)cc1` (racemic) [Co. No. 38, (±)-N-[3-[(1,1′-biphenyl)-4-yl]-3-phenylpropyl]-N,N′,N′-trimethylpropanediamine], for which the “E. coli (growth inhibition score)” value in assay [1] is 1. Besides, the “P. aeruginosa (growth inhibition score)” value in assay [2] came out at 1.

On to `CNCCCN(C)CCCN(C)C(c1ccccc1)c1ccc(-c2ccccc2)cc1` (racemic) [Co. No. 52, (±)-N-[[(1,1′-biphenyl)4-yl]phenylmethyl]-N,N′-dimethyl-N′-[3-(methylamino)propyl]-1,3-propanediamine trihydrochloride], for which the “E. coli (growth inhibition score)” value in assay [1] was 3. The “P. aeruginosa (growth inhibition score)” value in assay [2] amounted to 1. Besides, in assay [3], the “Test yeast (19) Debaryomyces hansenii (score)” value is 3. The “Test yeast (20) Rhodotorula rubra (score)” value in assay [4] is 3. Moreover, the “Test yeast (21) Sporobolomyces roseus (score)” value in assay [5] amounted to 3.

In the case of `CNCCNCCC(c1ccccc1)c1ccc(-c2ccccc2)cc1.Cl.Cl` (racemic) [Co. No. 56, (±)-N-[3-([1,1′-biphenyl]-4-yl)-3-phenylpropyl]-N′-methyl-1,2-ethanediamine dihydrochloride], the “E. coli (growth inhibition score)” value in assay [1] was 3. In addition, the “P. aeruginosa (growth inhibition score)” value in assay [2] worked out at 1.

Regarding `NCCCNCCC(c1ccccc1)c1ccc(-c2ccccc2)cc1.NCCCNCCC(c1ccccc1)c1ccc(-c2ccccc2)cc1.O=C(O)C(O)C(O)C(=O)O.O=C(O)C(O)C(O)C(=O)O.O=C(O)C(O)C(O)C(=O)O` (single isomer, unassigned) [compound 69], the “E. coli (growth inhibition score)” value in assay [1] amounted to 3. In addition, the “P. aeruginosa (growth inhibition score)” value in assay [2] was 1.

`NCCCN1CCC(C(c2ccccc2)c2ccc(-c3ccccc3)cc2)CC1.NCCCN1CCC(C(c2ccccc2)c2ccc(-c3ccccc3)cc2)CC1.O.O.O=C(O)C(O)C(O)C(=O)O.O=C(O)C(O)C(O)C(=O)O.O=C(O)C(O)C(O)C(=O)O` (single isomer, unassigned) [compound 84]: the “E. coli (growth inhibition score)” value in assay [1] was 3. Further, the “P. aeruginosa (growth inhibition score)” value in assay [2] worked out at 3.

As to `CC(C)O.Cl.Cl.Fc1ccc(C(=C2CCN(C3CCNCC3)CC2)c2ccc(-c3ccccc3)cc2)cc1` [Co. No. 2, 4-[[(1,1′-biphenyl)-4-yl](4-fluorophenyl)methylen](1,4′-bipiperidine)dihydrochloride 2-propanolate (1:1)], the “E. coli (growth inhibition score)” value in assay [1] stood at 3. The “P. aeruginosa (growth inhibition score)” value in assay [2] came to 1.

On to `Cl.Cl.NCCCN1CCC(C(c2ccccc2)c2ccc(-c3ccccc3)cc2)CC1.O.O.O.O` (stereo not shown) [Co. No. 78, (A)-4-[([1,1′-biphenyl]-4-yl)phenylmethyl]-1-piperidinepropanamine dihydrochloride tetrahydrate], for which the “E. coli (growth inhibition score)” value in assay [1] stood at 3. The “P. aeruginosa (growth inhibition score)” value in assay [2] is given as 3.

As to `Fc1ccc(C(=C2CCN(C3CCNCC3)CC2)c2ccc(-c3ccc(F)cc3)cc2)cc1.O=C(O)/C=C/C(=O)O.O=C(O)/C=C/C(=O)O` [compound 1], the “E. coli (growth inhibition score)” value in assay [1] was 3. For the same molecule, the “P. aeruginosa (growth inhibition score)” value in assay [2] is 1.

Consider `Cl.Cl.c1ccc(C(=C2CCN(C3CCNCC3)CC2)c2ccc(-c3ccccc3)cc2)cc1` [compound 3], for which the “E. coli (growth inhibition score)” value in assay [1] is given as 1. Also, the “P. aeruginosa (growth inhibition score)” value in assay [2] is listed as 1.

`Cl.Fc1ccc(-c2ccc(C(=C3CCN(C4CCNCC4)CC3)c3ccccc3)cc2)cc1` [compound 5]: the “E. coli (growth inhibition score)” value in assay [1] is recorded as 2. In addition, the “P. aeruginosa (growth inhibition score)” value in assay [2] stood at 1.

In the case of `Cl.Cl.Fc1ccc(-c2ccc(C(c3ccc(Cl)cc3)C3CCN(C4CCNCC4)CC3)cc2)cc1` (stereo not shown) [compound 8], the “E. coli (growth inhibition score)” value in assay [1] came to 3. Further, in assay [2], the “P. aeruginosa (growth inhibition score)” value is reported as 3.

As to `O=S(=O)(O)c1ccc(-c2ccc(C(c3ccc(S(=O)(=O)O)cc3)C3CCN(C4CCNCC4)CC3)cc2)cc1` (stereo not shown) [compound 10], the “E. coli (growth inhibition score)” value in assay [1] amounted to 1. Further, in assay [2], the “P. aeruginosa (growth inhibition score)” value was determined as 1.

Turning to `CN(C)CCCN1CCC(N2CCC(C(c3ccccc3)c3ccc(-c4ccccc4)cc3)CC2)CC1.Cl.Cl.Cl` (stereo not shown) [compound 15], in assay [1], the “E. coli (growth inhibition score)” value is listed as 1. Besides, the “P. aeruginosa (growth inhibition score)” value in assay [2] is 1.

Take `CN1CCC(N2CCC(C(c3ccccc3)c3ccc(-c4ccccc4)cc3)CC2)CC1` (stereo not shown) [compound 19]: the “E. coli (growth inhibition score)” value in assay [1] was 1. The “P. aeruginosa (growth inhibition score)” value in assay [2] stood at 1.

Consider `CN(C)CCC1CCN(CC=C(c2ccccc2)c2ccc(-c3ccccc3)cc2)CC1.Cl.Cl` [compound 24], for which the “E. coli (growth inhibition score)” value in assay [1] was found to be 1. Besides, the “P. aeruginosa (growth inhibition score)” value in assay [2] is 1.

As to `CN(C)CCC1CCN(CCC(c2ccccc2)c2ccc(-c3ccccc3)cc2)CC1.Cl.Cl` (stereo not shown) [compound 28], the “E. coli (growth inhibition score)” value in assay [1] came to 1. Further, in assay [2], the “P. aeruginosa (growth inhibition score)” value is recorded as 1.

On to `CN(C)C1CCN(CCC(c2ccccc2)c2ccc(-c3ccccc3)cc2)CC1` (stereo not shown) [compound 32], for which the “E. coli (growth inhibition score)” value in assay [1] came to 1. Further, the “P. aeruginosa (growth inhibition score)” value in assay [2] is on record as 1.

For the molecule `CN(C)CCCN(C)CC=C(c1ccccc1)c1ccc(-c2ccccc2)cc1` [compound 35], the “E. coli (growth inhibition score)” value in assay [1] turned out to be 3. Also, the “P. aeruginosa (growth inhibition score)” value in assay [2] amounted to 1.

Consider `CN(C)CCCNCC=C(c1ccccc1)c1ccc(-c2ccccc2)cc1` [compound 36], for which the “E. coli (growth inhibition score)” value in assay [1] turned out to be 1. The “P. aeruginosa (growth inhibition score)” value in assay [2] worked out at 1.

On to `CN(C)CCNCC=C(c1ccccc1)c1ccc(-c2ccccc2)cc1` [compound 37], for which the “E. coli (growth inhibition score)” value in assay [1] is given as 1. For the same molecule, the “P. aeruginosa (growth inhibition score)” value in assay [2] came to 1.

Turning to `CC(C)O.Cl.Cl.Cl.O.c1ccc(-c2ccc(C(c3ccccc3)C3CCN(C4CCN(C5CCNCC5)CC4)CC3)cc2)cc1` (stereo not shown) [compound 44], in assay [1], the “E. coli (growth inhibition score)” value is given as 3. Moreover, in assay [2], the “P. aeruginosa (growth inhibition score)” value turned out to be 1.

As for `Cl.c1ccc(-c2ccc(C(c3ccccc3)N3CCC(N4CCCCC4)CC3)cc2)cc1` (stereo not shown) [compound 45], in assay [1], the “E. coli (growth inhibition score)” value was 1. Also, in assay [2], the “P. aeruginosa (growth inhibition score)” value was 1.

Turning to `CN(C1CCN(C2CCNCC2)CC1)C(c1ccccc1)c1ccc(-c2ccccc2)cc1.O.O` (stereo not shown) [compound 48], the “E. coli (growth inhibition score)” value in assay [1] is 1. In assay [2], the “P. aeruginosa (growth inhibition score)” value was 1.

As for `CN(CCCN)CCCNC(c1ccccc1)c1ccc(-c2ccccc2)cc1.O=C(O)C(=O)O.O=C(O)C(=O)O.O=C(O)C(=O)O` (stereo not shown) [compound 53], the “E. coli (growth inhibition score)” value in assay [1] stood at 3. Besides, the “P. aeruginosa (growth inhibition score)” value in assay [2] worked out at 1.

With `CN(C)CCCN(C)CCCN(C)C(c1ccccc1)c1ccc(-c2ccccc2)cc1.Cl.Cl.Cl.O` (stereo not shown) [compound 54], the “E. coli (growth inhibition score)” value in assay [1] stood at 3. The “P. aeruginosa (growth inhibition score)” value in assay [2] is 1.

Regarding `NCCCNCCC(c1ccccc1)c1ccc(-c2ccccc2)cc1.NS(=O)(=O)O.NS(=O)(=O)O` (stereo not shown) [compound 67], the “E. coli (growth inhibition score)” value in assay [1] worked out at 3. Also, the “P. aeruginosa (growth inhibition score)” value in assay [2] was 2.

Turning to `CN(CCN)CCC(c1ccccc1)c1ccc(-c2ccccc2)cc1.O=c1[nH]sc2ccccc12` (stereo not shown) [compound 73], the “E. coli (growth inhibition score)” value in assay [1] came out at 3. Moreover, the “P. aeruginosa (growth inhibition score)” value in assay [2] amounted to 3.

As to `CN(C1CCNCC1)C1CCN(CCC(c2ccccc2)c2ccc(-c3ccccc3)cc2)CC1.Cl.Cl.Cl.O.O.O` (stereo not shown) [compound 89], the “E. coli (growth inhibition score)” value in assay [1] turned out to be 3. In addition, the “P. aeruginosa (growth inhibition score)” value in assay [2] turned out to be 1.

As for “benzalconium chloride [BAC, reference compound]”, the Measured activity in assay [6] amounted to 100%.

The values above are taken from patent US6440440B1, “Biocidal benzylbiphenyl derivatives” (priority 1998, dated 2002).
